Test results from publication PMC8776063, “Aurora Kinase A Is Involved in Controlling the Localization of Aquaporin-2 in Renal Principal Cells” (International Journal of Molecular Sciences, 2022).
Read-outs that look alike come from different tables or passages of the source.

Legend:
ULK3 = target: T1, ULK3 (Homo sapiens, UniProt Q6PHR2); experiment: Thermal shift assay; assay type: binding; conditions: read-out: ΔTm ULK3
T1 construct: purchased in-house thermal shift (DSF) kinase panel (SGC Frankfurt); Promega NanoBRET for AURKA/B/C
T1 sequence (Q6PHR2 1-277): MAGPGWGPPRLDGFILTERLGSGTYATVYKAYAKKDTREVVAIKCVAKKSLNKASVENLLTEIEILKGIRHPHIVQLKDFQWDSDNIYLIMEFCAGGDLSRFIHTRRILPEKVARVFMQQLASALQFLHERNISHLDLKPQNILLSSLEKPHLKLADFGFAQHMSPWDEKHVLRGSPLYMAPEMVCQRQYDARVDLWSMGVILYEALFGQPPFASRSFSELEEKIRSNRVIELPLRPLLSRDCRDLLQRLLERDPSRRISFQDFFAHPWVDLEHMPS

MAPK8 = target: T2, MAPK8 (Homo sapiens, UniProt P45983); experiment: Thermal shift assay; assay type: binding; conditions: read-out: ΔTm MAPK8
T2 construct: purchased in-house thermal shift (DSF) kinase panel (SGC Frankfurt); Promega NanoBRET for AURKA/B/C
T2 sequence (P45983 1-364): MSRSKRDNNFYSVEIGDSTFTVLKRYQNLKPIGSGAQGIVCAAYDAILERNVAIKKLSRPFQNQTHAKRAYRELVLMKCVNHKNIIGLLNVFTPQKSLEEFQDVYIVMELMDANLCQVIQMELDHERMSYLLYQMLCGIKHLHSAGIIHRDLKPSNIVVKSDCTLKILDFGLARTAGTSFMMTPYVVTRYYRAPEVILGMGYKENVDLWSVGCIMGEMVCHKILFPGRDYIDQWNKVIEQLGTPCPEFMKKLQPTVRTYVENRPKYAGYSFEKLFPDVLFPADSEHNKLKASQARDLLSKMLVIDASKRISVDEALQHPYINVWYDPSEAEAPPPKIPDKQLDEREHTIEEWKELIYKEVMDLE

MAP2K1 = target: T3, MAP2K1 (Homo sapiens, UniProt Q02750); experiment: Thermal shift assay; assay type: binding; conditions: read-out: ΔTm MAP2K1
T3 construct: purchased in-house thermal shift (DSF) kinase panel (SGC Frankfurt); Promega NanoBRET for AURKA/B/C
T3 sequence (Q02750 68-361): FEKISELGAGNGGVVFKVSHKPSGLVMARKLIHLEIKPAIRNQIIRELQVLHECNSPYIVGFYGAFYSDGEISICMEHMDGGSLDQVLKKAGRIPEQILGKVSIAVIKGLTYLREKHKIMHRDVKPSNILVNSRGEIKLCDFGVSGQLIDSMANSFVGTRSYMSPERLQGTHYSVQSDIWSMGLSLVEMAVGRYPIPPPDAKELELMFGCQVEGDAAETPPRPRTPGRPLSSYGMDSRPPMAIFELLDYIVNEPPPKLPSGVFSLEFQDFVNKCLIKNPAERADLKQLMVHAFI

BRAF = target: T4, BRAF (Homo sapiens, UniProt P15056); experiment: Thermal shift assay; assay type: binding; conditions: read-out: ΔTm BRAF
T4 construct: purchased in-house thermal shift (DSF) kinase panel (SGC Frankfurt); Promega NanoBRET for AURKA/B/C
T4 sequence (P15056 448-723): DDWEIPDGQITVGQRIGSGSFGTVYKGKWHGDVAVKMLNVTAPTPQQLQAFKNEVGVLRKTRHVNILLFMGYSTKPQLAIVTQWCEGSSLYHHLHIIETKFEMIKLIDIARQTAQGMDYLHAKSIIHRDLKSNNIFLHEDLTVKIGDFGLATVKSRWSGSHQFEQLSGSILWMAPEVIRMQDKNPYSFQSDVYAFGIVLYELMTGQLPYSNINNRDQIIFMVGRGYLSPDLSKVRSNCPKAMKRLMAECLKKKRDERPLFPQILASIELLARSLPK

STK10 = target: T5, STK10 (Homo sapiens, UniProt O94804); experiment: Thermal shift assay; assay type: binding; conditions: read-out: ΔTm STK10
T5 construct: purchased in-house thermal shift (DSF) kinase panel (SGC Frankfurt); Promega NanoBRET for AURKA/B/C
T5 sequence (O94804 18-317): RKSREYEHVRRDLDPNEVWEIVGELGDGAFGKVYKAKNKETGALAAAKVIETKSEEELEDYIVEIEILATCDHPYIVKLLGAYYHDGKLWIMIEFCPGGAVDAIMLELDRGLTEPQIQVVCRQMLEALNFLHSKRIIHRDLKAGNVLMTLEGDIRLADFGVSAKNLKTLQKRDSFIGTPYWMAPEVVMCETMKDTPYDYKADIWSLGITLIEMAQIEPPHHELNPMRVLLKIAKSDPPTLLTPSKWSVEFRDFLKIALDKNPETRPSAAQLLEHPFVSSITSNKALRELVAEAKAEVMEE

VRK1 = target: T6, VRK1 (Homo sapiens, UniProt Q99986); experiment: Thermal shift assay; assay type: binding; conditions: read-out: ΔTm VRK1
T6 construct: purchased in-house thermal shift (DSF) kinase panel (SGC Frankfurt); Promega NanoBRET for AURKA/B/C
T6 sequence (Q99986 1-396): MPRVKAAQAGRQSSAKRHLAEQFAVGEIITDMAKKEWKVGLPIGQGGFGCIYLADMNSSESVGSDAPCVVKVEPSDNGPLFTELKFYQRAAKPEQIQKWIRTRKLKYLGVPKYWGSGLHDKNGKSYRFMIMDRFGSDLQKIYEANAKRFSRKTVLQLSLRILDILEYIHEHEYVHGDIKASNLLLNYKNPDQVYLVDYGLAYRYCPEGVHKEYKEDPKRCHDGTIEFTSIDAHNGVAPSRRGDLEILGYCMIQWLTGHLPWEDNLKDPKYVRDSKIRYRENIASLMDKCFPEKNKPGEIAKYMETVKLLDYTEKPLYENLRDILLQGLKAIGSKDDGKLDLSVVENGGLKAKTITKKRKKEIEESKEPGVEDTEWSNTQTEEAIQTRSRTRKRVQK

[1] = test system: CFL1 phosphorylation in MCD4 cells; experiment: CFL1 phosphorylation, Western blotting; assay type: cell-based, mouse; conditions: compound 30 µM, 1 h; for CFL1 phosphorylation in combination with forskolin: forskolin 30 µM, 30 min; for CFL1 phosphorylation: absence and presence of forskolin
AKT3 = target: T7, AKT3 (Homo sapiens, UniProt Q9Y243); experiment: Thermal shift assay; assay type: binding; conditions: read-out: ΔTm AKT3
T7 construct: purchased in-house thermal shift (DSF) kinase panel (SGC Frankfurt); Promega NanoBRET for AURKA/B/C
T7 sequence (Q9Y243 148-479): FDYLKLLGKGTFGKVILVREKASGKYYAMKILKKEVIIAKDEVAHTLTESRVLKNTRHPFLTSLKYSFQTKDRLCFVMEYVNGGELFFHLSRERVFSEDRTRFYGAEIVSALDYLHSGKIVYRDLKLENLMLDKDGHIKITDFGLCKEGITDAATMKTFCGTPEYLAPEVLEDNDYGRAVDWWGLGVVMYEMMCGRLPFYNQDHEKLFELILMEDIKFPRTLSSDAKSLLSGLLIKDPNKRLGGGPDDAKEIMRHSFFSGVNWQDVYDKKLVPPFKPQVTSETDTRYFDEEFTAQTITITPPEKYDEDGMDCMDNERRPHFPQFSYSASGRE

TTK = target: T8, TTK (Homo sapiens, UniProt P33981); experiment: Thermal shift assay; assay type: binding; conditions: read-out: ΔTm TTK
T8 construct: purchased in-house thermal shift (DSF) kinase panel (SGC Frankfurt); Promega NanoBRET for AURKA/B/C
T8 sequence (P33981 519-808): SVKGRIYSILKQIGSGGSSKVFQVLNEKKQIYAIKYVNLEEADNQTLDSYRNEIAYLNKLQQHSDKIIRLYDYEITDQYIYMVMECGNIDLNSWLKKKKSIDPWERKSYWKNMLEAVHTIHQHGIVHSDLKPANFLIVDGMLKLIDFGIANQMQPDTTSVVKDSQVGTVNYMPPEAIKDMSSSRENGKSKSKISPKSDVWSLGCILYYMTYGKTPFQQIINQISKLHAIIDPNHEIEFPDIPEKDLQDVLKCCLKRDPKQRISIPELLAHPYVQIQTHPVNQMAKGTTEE

CAMK1G = target: T9, CAMK1G (Homo sapiens, UniProt Q96NX5); experiment: Thermal shift assay; assay type: binding; conditions: read-out: ΔTm CAMK1G
T9 construct: purchased in-house thermal shift (DSF) kinase panel (SGC Frankfurt); Promega NanoBRET for AURKA/B/C
T9 sequence (Q96NX5 23-277): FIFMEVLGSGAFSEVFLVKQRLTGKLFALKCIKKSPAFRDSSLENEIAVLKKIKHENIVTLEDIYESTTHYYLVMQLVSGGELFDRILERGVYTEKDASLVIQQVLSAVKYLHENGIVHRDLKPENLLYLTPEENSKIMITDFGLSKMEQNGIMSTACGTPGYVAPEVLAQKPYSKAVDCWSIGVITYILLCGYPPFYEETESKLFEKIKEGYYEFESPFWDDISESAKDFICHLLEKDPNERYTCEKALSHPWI

GAK = target: T10, GAK (Homo sapiens, UniProt O14976); experiment: Thermal shift assay; assay type: binding; conditions: read-out: ΔTm GAK
T10 construct: purchased in-house thermal shift (DSF) kinase panel (SGC Frankfurt); Promega NanoBRET for AURKA/B/C
T10 sequence (O14976 14-351): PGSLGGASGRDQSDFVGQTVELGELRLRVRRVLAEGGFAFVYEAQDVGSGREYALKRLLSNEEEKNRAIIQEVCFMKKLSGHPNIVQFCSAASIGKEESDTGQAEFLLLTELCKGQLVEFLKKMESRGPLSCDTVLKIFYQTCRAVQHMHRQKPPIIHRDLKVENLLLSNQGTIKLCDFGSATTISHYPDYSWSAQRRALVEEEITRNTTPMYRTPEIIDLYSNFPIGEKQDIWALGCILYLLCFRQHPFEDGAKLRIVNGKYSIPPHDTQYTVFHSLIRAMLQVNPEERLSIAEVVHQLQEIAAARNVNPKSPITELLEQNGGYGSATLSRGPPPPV

PAK1 = target: T11, PAK1 (Homo sapiens, UniProt Q13153); experiment: Thermal shift assay; assay type: binding; conditions: read-out: ΔTm PAK1
T11 construct: purchased in-house thermal shift (DSF) kinase panel (SGC Frankfurt); Promega NanoBRET for AURKA/B/C
T11 sequence (Q13153 249-545): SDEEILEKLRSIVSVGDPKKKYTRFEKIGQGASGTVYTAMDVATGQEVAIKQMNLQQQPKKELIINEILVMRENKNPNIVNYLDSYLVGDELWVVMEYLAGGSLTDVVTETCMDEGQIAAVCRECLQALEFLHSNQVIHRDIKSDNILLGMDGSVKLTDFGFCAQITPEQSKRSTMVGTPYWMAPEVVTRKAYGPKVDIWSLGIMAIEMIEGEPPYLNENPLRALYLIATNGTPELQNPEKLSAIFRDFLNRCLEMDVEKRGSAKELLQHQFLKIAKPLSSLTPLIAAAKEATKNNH

CAMKK2 = target: T12, CAMKK2 (Homo sapiens, UniProt Q96RR4); experiment: Thermal shift assay; assay type: binding; conditions: read-out: ΔTm CAMKK2
T12 construct: purchased in-house thermal shift (DSF) kinase panel (SGC Frankfurt); Promega NanoBRET for AURKA/B/C
T12 sequence (Q96RR4 161-449): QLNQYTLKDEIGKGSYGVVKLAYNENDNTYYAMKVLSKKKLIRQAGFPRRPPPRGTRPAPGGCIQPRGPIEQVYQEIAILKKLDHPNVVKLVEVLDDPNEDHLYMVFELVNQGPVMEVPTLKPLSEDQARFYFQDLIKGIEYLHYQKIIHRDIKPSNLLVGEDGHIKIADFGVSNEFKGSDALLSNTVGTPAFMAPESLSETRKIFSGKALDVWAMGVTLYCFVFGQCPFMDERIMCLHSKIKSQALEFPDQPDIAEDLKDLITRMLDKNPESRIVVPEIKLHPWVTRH

STK39 = target: T13, STK39 (Homo sapiens, UniProt Q9UEW8); experiment: Thermal shift assay; assay type: binding; conditions: read-out: ΔTm STK39
T13 construct: purchased in-house thermal shift (DSF) kinase panel (SGC Frankfurt); Promega NanoBRET for AURKA/B/C

STK3 = target: T14, STK3 (Homo sapiens, UniProt Q13188); experiment: Thermal shift assay; assay type: binding; conditions: read-out: ΔTm STK3
T14 construct: purchased in-house thermal shift (DSF) kinase panel (SGC Frankfurt); Promega NanoBRET for AURKA/B/C
T14 sequence (Q13188 16-313): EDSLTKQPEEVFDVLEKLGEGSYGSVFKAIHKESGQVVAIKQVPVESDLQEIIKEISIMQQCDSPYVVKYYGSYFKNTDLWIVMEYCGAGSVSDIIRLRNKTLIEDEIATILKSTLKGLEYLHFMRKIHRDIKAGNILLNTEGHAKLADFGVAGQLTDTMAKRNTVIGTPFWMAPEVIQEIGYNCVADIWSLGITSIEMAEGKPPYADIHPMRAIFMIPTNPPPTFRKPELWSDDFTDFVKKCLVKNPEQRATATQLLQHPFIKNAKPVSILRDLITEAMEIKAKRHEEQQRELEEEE

Row | SMILES | ΔTm at 10 µM (ULK3; compound 10 µM, n = 3) | ΔTm at 10 µM (MAPK8; compound 10 µM, n = 3) | ΔTm at 10 µM (MAP2K1; compound 10 µM, n = 3) | ΔTm at 10 µM (BRAF; compound 10 µM, n = 3) | ΔTm at 10 µM (STK10; compound 10 µM, n = 3) | ΔTm at 10 µM (VRK1; compound 10 µM, n = 3) | CFL1 phosphorylation in combination with forskolin [1] | ΔTm at 10 µM (AKT3; compound 10 µM, n = 3) | ΔTm at 10 µM (TTK; compound 10 µM, n = 3) | ΔTm at 10 µM (CAMK1G; compound 10 µM, n = 3) | ΔTm at 10 µM (GAK; compound 10 µM, n = 3) | ΔTm at 10 µM (PAK1; compound 10 µM, n = 3) | ΔTm at 10 µM (CAMKK2; compound 10 µM, n = 3) | ΔTm at 10 µM (STK39; compound 10 µM, n = 3) | ΔTm at 10 µM (STK3; compound 10 µM, n = 3) | CFL1 phosphorylation [1] | also measured
1 | O=C(Cc1ccc(Nc2ncc(F)c(Nc3ccc(C(=O)Nc4ccccc4Cl)cc3)n2)cc1)NCCN1CCOCC1 [ERJ2-04] | 6.2 °C | 3.2 °C | 0 °C | 0.8 °C | 0.6 °C | 0.3 °C | Significant additive effects | -0.1 °C | 1.8 °C | 0.4 °C | 4.5 °C | 0.6 °C | 1.3 °C | 2.1 °C | 1.3 °C |  | 
2 | CCN1CCN(C(=O)Cc2ccc(Nc3ncc(F)c(Nc4ccc(C(=O)O)cc4)n3)cc2)CC1 [ERJ2-12] | 4.3 °C | 4.2 °C | -0.1 °C | 0.7 °C | 2.2 °C | 0.1 °C |  | -0.1 °C | 0.6 °C | 0.2 °C | 2.7 °C | 0.2 °C | 1.8 °C | 0.2 °C | 0.1 °C | no effect | 
3 | CCN1CCN(C(=O)Cc2ccc(Nc3ncc(F)c(Nc4ccc(C(=O)Nc5ccccc5Cl)cc4)n3)cc2)CC1 [Aurora-A inhibitor I, reference compound] |  |  |  |  |  |  | Significant additive effects |  |  |  |  |  |  |  |  | significantly decreased | ΔTm at 10 µM (ULK3): 7.6 °C; ΔTm at 10 µM (MAPK8): 3.7 °C; ΔTm at 10 µM (MAP2K1): 0.2 °C; ΔTm at 10 µM (BRAF): 1.1 °C; ΔTm at 10 µM (STK10): 3.8 °C; ΔTm at 10 µM (VRK1): 0.4 °C; ΔTm at 10 µM (AKT3): 0.2 °C; ΔTm at 10 µM (TTK): 1.9 °C; ΔTm at 10 µM (CAMK1G): 1.1 °C; ΔTm at 10 µM (GAK): 5 °C; ΔTm at 10 µM (PAK1): 0.5 °C; ΔTm at 10 µM (CAMKK2): 2.3 °C; ΔTm at 10 µM (STK39): 2.4 °C; ΔTm at 10 µM (STK3): 2.6 °C
4 | NC(=O)Cc1ccc(Nc2ncc(F)c(Nc3ccc(C(=O)Nc4ccccc4Cl)cc3)n2)cc1 [ERJ2-06] | 9.4 °C | 3.7 °C | 0 °C | 0.5 °C | 1.4 °C | 0.2 °C | Significant additive effects | 0.1 °C | 2.4 °C | 1.2 °C | 5.1 °C | 0.7 °C | 2.2 °C | 2.4 °C | 3.1 °C |  | 
5 | CCN1CCN(C(=O)Cc2ccc(Nc3ncc(F)c(Nc4ccc(C(=O)Nc5ccccc5)cc4)n3)cc2)CC1 [ERJ2-11] | 9.8 °C | 3.8 °C | 0 °C | 1.8 °C | 4.8 °C | 0.1 °C | Significant additive effects | 0.1 °C | 2.2 °C | 1.2 °C | 4.9 °C | 0.5 °C | 3.1 °C | 2.6 °C | 2 °C |  | 
